Molecules are shown by their SMILES. Structures can show the parent of a compound that is named as a salt.

For one assay, the system named is U937 cells. The experiment in a line: Cellular assay in U937 cells on cell death (necroptosis), TNFα/zVAD.fmk. The following applies: Homo sapiens, U-937, Comparator table 5; read-out: U937 IC50 (uM) Mean. In kind it is cell-based. The text has this:
Cellular Assay in U937 Cells to Measure the Activity of RIPK1-Inhibitors on Cell Death (Necroptosis).
Cell death was quantified in 96 well plates by determination of the amount of live cell using a CellTiter 96 AQueous reagent (Promega), a calorimetric method to measure the amount of live cells by reducing tetrazolium compound [3-(4,5-dimethylthiazol-2-yl)-5-(3-carboxymethoxyphenyl)-2-(4-sulfophenyl)-2H-tetrazolium, inner salt; MTS] into formazan. Absorbance of formazan was read at 490 nm. The inhibitory activity of the test compound was quantified in a concentration response curve (CRC) experiment. Compounds were obtained as 10 mM stock solutions and were diluted 1 to 10 volumes with DMSO to yield a 1 mM solution. From this solution 2 μl were diluted with 998 μl growth medium. 100 μl of 2 μM compound solution was further diluted sequentially with a dilution factor of 2.5 by adding 150 μl growth medium. A total of 10 concentrations were tested ranging from 10 μM to 0.26 nM or from 1 μM to 0.07 nM.
U937 cells were cultured in RPMI1640 Glutamax and 10% heat inactivated FBS. 50 μl cell suspension containing 1×10^6 cells/ml supplemented with 50 μM zVAD.fmk (Benzyloxycarbonyl-Val-Ala-Asp (OMe) fluoromethylketone) and 100 ng/ml recombinant human TNFα were dispensed in each well of a 96-well plate. 50 μl of compound dilutions (see above) were added and the cell suspension incubated overnight (18 to 24 hours) at 37° C., 5% CO2 in a humidified atmosphere (95% rH). High (no compound) and low control (no TNFα, zVAD.fmk) were tested with 7 replicates; all compound concentrations were tested in duplicates on each experimental plate.
CellTiter 96 Aqueous reagent was mixed (100 μl PMS (phenazine methosulfate) solution/2 ml MTS (3-(4,5-[…])-5-(3-carboxymethoxyphenyl)-2-(4-sulfophenyl)-2H-tetrazolium, inner salt) solution) and 20 μl were added per well. After 4 hours incubation at 37° C. (5% CO2 95% rH) optical density was measured at 490 nm on a microplate reader (Tecan Infinite M1000).
The % inhibition is expressed as percentage of the maximal inhibition value obtained in the absence of TNFα/zVAD.fmc.
Consider `NC(=O)c1ccnc(N2CCC(C(=O)N3OCC[C@H]3c3cc(F)cc(F)c3)CC2)n1` [E, reference compound], for which the IC50 was 0.002 µM.
As to `CC(C)(C)OC(=O)N1CC[C@@H](C(=O)N2OCC[C@H]2c2cncc(F)c2)[C@@H](F)C1` [F, reference compound], the IC50 is over 10 µM.

Staying with this assay, now noted: Homo sapiens, U-937, Table 2; read-out: U937 IC50.
As to `Cn1ccc(C2CCON2C(=O)C2CCN(c3nccc(C(N)=O)n3)CC2)n1` (racemic) [Ex. 002*], the IC50 was found to be 1.83 µM.
On the same count and under the same terms, the same measure for `NC(=O)c1ccnc(N2CCC(C(=O)N3OCCC3c3ccc4nccn4c3)CC2)n1` (racemic) [Ex. 012*]: 7.26 µM; for `NC(=O)c1cncc(C2CCON2C(=O)C2CCN(c3nccc(C(N)=O)n3)CC2)c1` (racemic) [Ex. 029*]: 2.2 µM; for `CNC(=O)c1cncc(C2CCON2C(=O)C2CCN(c3nccc(C(N)=O)n3)CC2)c1` (racemic) [Ex. 040*]: over 10 µM.
On the same count and under the same terms, under `Cc1nnc(C2CCON2C(=O)C2CCN(c3nccc(C(N)=O)n3)CC2)s1` (racemic) [Ex. 089*] stands 2.16 µM; under `Cn1ccc(C2CCON2C(=O)C2CCN(c3cc(C#N)ncn3)CC2)n1` (racemic) [Example 006, 6-[4-[3-(1-methylpyrazol-3-yl)isoxazolidine-2-carbonyl]-1-piperidyl]pyrimidine 4-carbonitrile], 5.6 µM.
On the same count and under the same terms, the same measure for `Cn1ccc(C2CCON2C(=O)C2CCN(c3cc(C(N)=O)ncn3)CC2)n1` (racemic) [Example 008, 6-[4-[3-(1-methylpyrazol-3-yl)isoxazolidine-2-carbonyl]-1-piperidyl] pyrimidine-4-carboxamide TFA salt]: 5.22 µM; for `CNC(=O)c1cncc(C2CCON2C(=O)C2CCN(c3cc(C(N)=O)ncn3)CC2)c1` (racemic) [Example 041]: over 10 µM.
For `NC(=O)c1ccnc(N2CCC(C(=O)N3OCC[C@H]3c3cncnc3)CC2)n1` [Ex. 003], the IC50 came out at 0.29 µM.
The same measure, in the same setting: under `N#Cc1cncc([C@@H]2CCON2C(=O)C2CCN(c3cc(C#N)ncn3)CC2)c1` [Ex. 005] stands 0.115 µM.
Still for that read-out and setting: the same measure for `N#Cc1cncc([C@@H]2CCON2C(=O)C2CCN(c3cc(C#N)ccn3)CC2)c1` [Ex. 017]: 0.343 µM; for `CC1(C(=O)N2OCC[C@H]2c2cncc(C#N)c2)CCN(c2ncc(F)c(OCC#N)n2)CC1` [Ex. 018]: 0.0103 µM; for `NC(=O)c1ccnc(N2CCC(C(=O)N3OCCC3c3ccc(O)nc3)CC2)n1` (centres unmarked) [Ex. 022]: over 10 µM.
For `CCOC(=O)COc1nc(N2CCC(C(=O)N3OCC[C@H]3c3cncc(C#N)c3)CC2)ncc1F` [Ex. 027, Ethyl 2-[2-[4-[(3S)-3-(5-cyano-3-pyridyl)isoxazolidine-2-carbonyl]-1-piperidyl]-5-fluoro-pyrimidin-4-yl]oxyacetate], the IC50 is 0.528 µM.
The same measure, in the same setting: the same measure for `CC(=O)Nc1cncc([C@@H]2CCON2C(=O)C2CCN(c3nccc(C(N)=O)n3)CC2)c1` [Ex. 043]: 2.7 µM; for `NC(=O)c1ccnc(N2CCC(C(=O)N3OCC[C@H]3c3cncc(N4CCCC4=O)c3)CC2)n1` [Ex. 060]: 7.31 µM; for `CC1(C(=O)N2OCC[C@H]2c2cncnc2)CCN(c2ncc(F)c(OCC#N)n2)CC1` [Ex. 062]: 0.0124 µM.
On the same count and under the same terms, under `N#CCOc1nc(N2CCC(C(=O)N3OCC[C@H]3c3cncnc3)CC2)ncc1F` [Ex. 063] stands 0.0151 µM; under `NC(=O)c1ccnc(N2CCC(C(=O)N3OCC[C@H]3c3cnccn3)CC2)n1` [Ex. 074], 0.00975 µM; under `CCN1CCC(CNC(=O)c2ccnc(N3CCC(C(=O)N4OCC[C@H]4c4cncc(C#N)c4)CC3)n2)CC1` [Ex. 079], 1.67 µM.
On to `Cc1cncc([C@@H]2CCON2C(=O)C2CCN(c3ncc(F)c(C(N)=O)n3)CC2)n1` [Ex. 082], for which the IC50 amounted to 0.00325 µM.
On the same count and under the same terms, the same measure for `NC(=O)c1nc(N2CCC(C(=O)N3OCC[C@H]3c3ccc(Cl)cn3)CC2)ncc1F` [Ex. 084]: 0.0178 µM; for `N#Cc1cncc([C@@H]2CCON2C(=O)C2CCN(c3nccc(C(=O)NC4CNC4)n3)CC2)c1` [Ex. 086, N-(Azetidin-3-yl)-2-[4-[(3S)-3-(5-cyano-3-pyridyl)isoxazolidine-2-carbonyl]-1-piperidyl]pyrimidine-4-carboxamide TFA salt]: 8.68 µM.
As to `NC(=O)c1cncc([C@@H]2CCON2C(=O)C2CCN(c3ncc(F)c(C(N)=O)n3)CC2)c1` [Ex. 101], the IC50 turned out to be 0.442 µM.
Consider `N#Cc1cncc([C@@H]2CCON2C(=O)C2CCN(c3nccc(C(N)=O)n3)CC2)n1` [Ex. 118], for which the IC50 came out at 0.00761 µM.
The same measure, in the same setting: under `N#Cc1cncc([C@@H]2CCON2C(=O)C2CCN(c3nccc(Br)n3)CC2)c1` [Ex. 161] stands 0.02 µM.
On the same count and under the same terms, under `COc1cncc([C@@H]2CCON2C(=O)C2CCN(c3ncc(F)c(C(N)=O)n3)CC2)n1` [Ex. 177] stands 0.00586 µM; under `N#Cc1nc([C@@H]2CCON2C(=O)C2CCN(c3nccc(C(N)=O)n3)CC2)cs1` [Ex. 188], 0.204 µM; under `N#Cc1ccc([C@@H]2CCON2C(=O)C2CCN(c3ncc(F)c(C#N)n3)CC2)nc1` [compound 112, 2-[4-[(3S)-3-(5-cyano-2-pyridyl)isoxazolidine-2-carbonyl]-1-piperidyl]-5-fluoro-pyrimidine-4-carbonitrile], 0.0755 µM.
Same read-out and setting: the same measure for `COc1nc(N2CCC(C(=O)N3OCC[C@H]3c3ccc(C#N)cn3)CC2)ncc1F` [compound 117]: 0.0684 µM; for `N#Cc1cncc([C@@H]2CCON2C(=O)C2CCN(c3ncc(F)c(O)n3)CC2)c1` [compound 125, 5-[(3S)-2-[1-(5-fluoro-4-hydroxy-pyrimidin-2-yl)piperidine-4-carbonyl]isoxazolidin-3-yl]pyridine-3-carbonitrile]: 8.65 µM.
Regarding `Cc1ccc([C@@H]2CCON2C(=O)C2CCN(c3cc(C#N)ncn3)CC2)cn1` [compound 128, (S)-6-(4-(3-(6-methylpyridin-3-yl)isoxazolidine-2-carbonyl)piperidin-1-yl)pyrimidine-4-carbonitrile], the IC50 is 0.224 µM.
Still for that read-out and setting: under `Cc1cncc([C@@H]2CCON2C(=O)C2CCN(c3nccc(C(N)=O)n3)CC2)c1` [compound 132, (S)-2-(4-(3-(5-methylpyridin-3-yl)isoxazolidine-2-carbonyl)piperidin-1-yl)pyrimidine-4-carboxamide] stands 0.0319 µM.
Same read-out and setting: the same measure for `Cc1ccc([C@@H]2CCON2C(=O)C2CCN(c3cc(C(N)=O)ncn3)CC2)cn1` [compound 135, (S)-6-(4-(3-(6-methylpyridin-3-yl)isoxazolidine-2-carbonyl)piperidin-1-yl)pyrimidine-4-carboxamide]: 0.491 µM; for `Cc1ncc([C@@H]2CCON2C(=O)C2CCN(c3nccc(C#N)n3)CC2)cc1F` [compound 136, (S)-2-(4-(3-(5-fluoro-6-methylpyridin-3-yl)isoxazolidine-2-carbonyl)piperidin-1-yl)pyrimidine-4-carbonitrile]: 0.0204 µM; for `N#Cc1cncc([C@@H]2CCON2C(=O)C2CCN(c3ccnc(N)n3)CC2)c1` [compound 148, 5-[(3S)-2-[1-(2-aminopyrimidin-4-yl)piperidine-4-carbonyl]isoxazolidin-3-yl]pyridine-3-carbonitrile]: 2.21 µM.
As for `O=C(C1CCN(c2ncnc(Cl)n2)CC1)N1OCC[C@H]1c1cnccn1` [compound 174, [1-(4-chloro-1,3,5-triazin-2-yl)-4-piperidyl]-[(3S)-3-pyrazin-2-ylisoxazolidin-2-yl]methanone], the IC50 came to 3.03 µM.
The same measure, in the same setting: under `COc1nc(Cl)nc(N2CCC(C(=O)N3OCC[C@H]3c3cnccn3)CC2)n1` [compound 181, [1-(4-chloro-6-methoxy-1,3,5-triazin-2-yl)-4-piperidyl]-[(3S)-3-pyrazin-2-ylisoxazolidin-2-yl]methanone] stands 0.0301 µM; under `Cc1ccc([C@@H]2CCON2C(=O)C2CCN(c3ncc(F)c(C(N)=O)n3)CC2)s1` [compound 183, 5-fluoro-2-[4-[(3S)-3-(5-methyl-2-thienyl)isoxazolidine-2-carbonyl]-1-piperidyl]pyrimidine-4-carboxamide], 0.000675 µM.

In general, IC50 refers to the midpoint of a concentration-inhibition curve.
